Values of other authors as cited in patent US20260102408A1, “CONTRACEPTIVE COMPOSITIONS WITH REDUCED ADVERSE EFFECTS” (ESTETRA SRL, priority 2020, published 2026).

Settings: single oral dose; Blode H et al. Study 1; Caucasian; geometric mean

- AUCinf of DRSP: 506 ng·h/mL
- Cmax of DRSP: 33.9 ng/mL
Compound: C[C@]12CCC(=O)C=C1[C@@H]1C[C@@H]1[C@H]1[C@@H]3[C@@H]4C[C@@H]4[C@@]4(CCC(=O)O4)[C@@]3(C)CC[C@@H]12 [DRSP 3 mg, drospirenone]
